Several values for one entry are separate records, joined by “and”; a condition that tells them apart may be missing. Equal entries are not always repeated. Entries after “also recorded” stand apart in the source; their conditions may differ. Where two headings read alike, the source gives them in different places.
Legend:
[1] = test system: Huh7 cells expressing a subgenomic RNA replicon of Con1 (genotype 1b) sequence origin; assay: microbe, parasite or virus in culture; conditions: Hepatitis C virus
[2] = test system: Huh7 cells expressing a subgenomic RNA replicon of Con1 (genotype 1b) sequence origin
SRI = SRI (Homo sapiens, UniProt P31645); assay: BBB/Neurotransmitter Binding: SRI
Chain of SRI (P31645 whole entry): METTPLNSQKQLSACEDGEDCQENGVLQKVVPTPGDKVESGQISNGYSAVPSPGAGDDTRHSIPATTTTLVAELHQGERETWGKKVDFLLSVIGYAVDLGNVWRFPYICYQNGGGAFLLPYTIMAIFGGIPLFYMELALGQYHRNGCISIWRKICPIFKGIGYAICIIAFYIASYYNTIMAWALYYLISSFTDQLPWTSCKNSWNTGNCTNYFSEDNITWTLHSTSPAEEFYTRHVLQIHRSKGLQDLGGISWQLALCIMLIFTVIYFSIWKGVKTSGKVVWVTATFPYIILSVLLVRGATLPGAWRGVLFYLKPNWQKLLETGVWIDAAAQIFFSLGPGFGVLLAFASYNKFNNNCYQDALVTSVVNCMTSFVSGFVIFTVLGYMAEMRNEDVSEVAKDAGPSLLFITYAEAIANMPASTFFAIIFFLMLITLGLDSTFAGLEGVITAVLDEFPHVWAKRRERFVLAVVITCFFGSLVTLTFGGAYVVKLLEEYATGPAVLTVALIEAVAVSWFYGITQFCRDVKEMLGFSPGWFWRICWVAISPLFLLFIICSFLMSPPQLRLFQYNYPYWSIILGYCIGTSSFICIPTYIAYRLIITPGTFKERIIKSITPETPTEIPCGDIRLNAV

in vitro = conditions: human
NRI = NRI (Homo sapiens, UniProt P23975); assay type: binding
Chain of NRI (P23975 whole entry): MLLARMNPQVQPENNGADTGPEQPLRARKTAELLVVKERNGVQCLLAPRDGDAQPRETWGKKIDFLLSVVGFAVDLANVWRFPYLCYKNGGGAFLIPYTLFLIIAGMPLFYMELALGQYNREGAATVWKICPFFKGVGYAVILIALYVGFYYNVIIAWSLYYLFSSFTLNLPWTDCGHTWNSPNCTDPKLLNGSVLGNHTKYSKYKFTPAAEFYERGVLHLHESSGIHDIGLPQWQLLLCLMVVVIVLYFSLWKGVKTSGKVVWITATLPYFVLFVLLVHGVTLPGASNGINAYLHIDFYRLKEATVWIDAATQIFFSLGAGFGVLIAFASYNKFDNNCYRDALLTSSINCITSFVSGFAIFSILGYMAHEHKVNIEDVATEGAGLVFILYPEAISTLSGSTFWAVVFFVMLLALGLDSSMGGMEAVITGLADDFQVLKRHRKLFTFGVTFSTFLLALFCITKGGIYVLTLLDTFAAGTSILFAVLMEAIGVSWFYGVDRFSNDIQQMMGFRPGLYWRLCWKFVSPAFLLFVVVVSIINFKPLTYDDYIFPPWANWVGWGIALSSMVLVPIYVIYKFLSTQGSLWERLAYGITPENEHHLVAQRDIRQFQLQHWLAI

HER1-2 = biological target: T1, HER1-2 (Homo sapiens, UniProt P04626); conditions: selective HER1 inhibitor (vs. HER1-2); cited from earlier work
T1 construct: the other entry of the earlier key: EGFR (P00533, Epidermal growth factor receptor)
T1 sequence (P04626 with tags, fused parts or gaps): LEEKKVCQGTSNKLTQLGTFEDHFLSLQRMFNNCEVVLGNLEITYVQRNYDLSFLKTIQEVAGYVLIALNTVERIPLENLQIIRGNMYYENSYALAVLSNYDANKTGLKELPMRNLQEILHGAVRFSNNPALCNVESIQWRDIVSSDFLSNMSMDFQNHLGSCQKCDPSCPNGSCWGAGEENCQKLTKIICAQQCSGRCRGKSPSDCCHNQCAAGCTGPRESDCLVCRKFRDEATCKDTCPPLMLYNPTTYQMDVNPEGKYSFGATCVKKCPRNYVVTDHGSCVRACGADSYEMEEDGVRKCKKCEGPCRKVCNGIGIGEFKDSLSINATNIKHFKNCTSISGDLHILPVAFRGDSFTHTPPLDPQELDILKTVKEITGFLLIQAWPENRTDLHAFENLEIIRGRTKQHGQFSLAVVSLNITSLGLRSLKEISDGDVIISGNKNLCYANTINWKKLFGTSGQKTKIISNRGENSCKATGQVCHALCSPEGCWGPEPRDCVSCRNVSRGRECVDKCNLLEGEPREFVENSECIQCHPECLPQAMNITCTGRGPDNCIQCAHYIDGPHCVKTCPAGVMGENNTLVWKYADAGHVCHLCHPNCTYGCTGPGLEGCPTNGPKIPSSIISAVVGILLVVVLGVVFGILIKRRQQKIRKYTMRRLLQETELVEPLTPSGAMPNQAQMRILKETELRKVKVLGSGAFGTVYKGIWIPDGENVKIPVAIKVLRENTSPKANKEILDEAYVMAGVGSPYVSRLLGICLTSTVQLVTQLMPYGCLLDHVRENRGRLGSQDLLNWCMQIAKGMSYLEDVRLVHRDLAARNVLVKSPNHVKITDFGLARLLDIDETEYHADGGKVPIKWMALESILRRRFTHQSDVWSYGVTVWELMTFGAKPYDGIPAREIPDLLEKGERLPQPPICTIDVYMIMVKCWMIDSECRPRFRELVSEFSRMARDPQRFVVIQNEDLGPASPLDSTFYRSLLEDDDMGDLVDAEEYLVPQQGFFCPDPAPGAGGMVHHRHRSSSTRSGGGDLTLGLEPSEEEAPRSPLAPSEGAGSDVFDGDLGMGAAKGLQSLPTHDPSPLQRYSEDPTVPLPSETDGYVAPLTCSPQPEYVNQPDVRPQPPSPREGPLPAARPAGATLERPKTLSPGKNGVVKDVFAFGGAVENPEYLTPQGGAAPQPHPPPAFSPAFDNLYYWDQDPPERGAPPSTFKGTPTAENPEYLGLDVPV

[3] = general description; cited from earlier work
[4] = in vivo
influenza A/PR/8/34 = test system: influenza A/PR/8/34; parameters: species or system C57/BL6 mice; conditions: mouse, in vivo
[5] = Huh-7, read-out: IC50 (uM) [SG]
[6] = Huh-7, read-out: Max Effect@CC30 (inhibition)
[7] = Huh-7, read-out: Max effect @CC30 (%)
[8] = GETYPE1B, Huh-7, 72 h, read-out: Max Effect @CC30 (inhibition)

## CN[C@H]1CC[C@@H](c2ccc(Cl)c(Cl)c2)c2ccc(C[S+](C)[O-])cc21 (stereo partly drawn) [(1S,4S)-4-(3,4-dichlorophenyl)-N-methyl-7-(methylsulfinylmethyl)-1,2,3,4-tetrahydronaphthalen-1-amine]
[1]; Huh-7
  IC90: 5.13 ± 0.16 µM
[1]; [5]
  IC50: 1.34 ± 0.26 µM
[1]; [6]
  Emax: 96.5 ± 2.6%
[1]; [7]
  Emax: 97.9 ± 1.1%
[1]; Huh-7, read-out: SA IC50 (uM)
  IC50: 1.46 ± 0.23 µM
[2]
  IC90: 5.17 µM and 5.15 µM
[2]; read-out: IC50 (uM) [SG]
  IC50: 1.55 µM
SRI
  BBB/Neurotransmitter Binding (nM) SRI: 340 nM
In vitro; CC50 (uM) [SG]
  CC50: 14.8 ± 0.97 µM
NRI
  BBB/Neurotransmitter Binding (nM) NRI: 450 nM
Huh7 parental cells; human
  CC50: 15.3 µM

## N#C/C(=C\c1ccc(O)c(O)c1)C(=O)Nc1ccccc1 [AG-494, AG 494, reference compound]
[2]
  IC50: 3.45 µM
HER1-2
  IC50: 45 µM

## CC(=O)OC[C@H]1O[C@@H]([S-])[C@H](OC(C)=O)[C@@H](OC(C)=O)[C@@H]1OC(C)=O.CCP(CC)CC.[Au+] [Auranofin, reference compound]
[2]
  IC50: 1.07 µM
[3]
  solubility in water (in words): insoluble in water

## CN[C@H]1CC[C@@H](c2ccc(Cl)c(Cl)c2)c2ccc(NS(C)(=O)=O)cc21 [Sertraline (Reverse) Methanesulfonamide, N-((5S,8S)-5-(3,4-dichlorophenyl)-8-(methylamino)-5,6,7,8-tetrahydronaphthalen-2-yl)methanesulfonamide]
[1]; [8]
  Emax: 83.3 ± 20.2%
[1]; Huh-7, 48 h
  IC50: 6.43 µM
[1]; Huh-7, 48 h, read-out: Max Effect
  Emax: 95%
[1]; Huh-7, 72 h
  IC50: 3.99 ± 0.8 µM
[1]; [5]
  IC50: 3.99 ± 0.8 µM
[1]; [6]
  Emax: 83.3 ± 20.2%
[1]; [7]
  Emax: 83.3 ± 20.2%
[1]; Huh-7, read-out: SA IC50 (uM)
  IC50: 3.99 ± 0.8 µM
[4]
  Pharmcokinetics: Brain levels compared with sertraline: lower sertraline
  Pharmcokinetics: Liver levels compared with sertraline: much greater
  Pharmcokinetics: overall assessment: Optimal PK, Liver levels
In vitro; CC50
  CC50: 12.9 µM
In vitro; CC50 (uM)
  CC50: 12.9 ± 0.3 µM
In vitro; CC50 (uM) [SG]
  CC50: 12.9 ± 0.3 µM
NRI
  BBB/Neurotransmitter Binding (nM) NRI: 60 nM

## CN[C@H]1CC[C@@H](c2ccc(Cl)c(Cl)c2)c2ccc(C(N)=O)cc21 [Sertraline A-ring carboxamide]
[2]
  IC90: 5.4 ± 1.81 µM
  Max Effect@CC30 (inhibition): 94.5 ± 0.7%
  Max effect @CC30 (%): 94.5 ± 0.7%
[2]; read-out: IC50 (uM) [SG]
  IC50: 1.8 ± 0.18 µM
[2]; read-out: SA IC50
  IC50: 1.8 µM
[4]
  Pharmcokinetics: Brain levels compared with sertraline: IC50, Brain levels lower
  Pharmcokinetics: overall assessment: Optimal PK. Liver
NRI
  BBB/Neurotransmitter Binding (nM) NRI: 410 nM
Huh7 parental cells
  CC50: 16.2 ± 0.57 µM

## CN[C@H]1CC[C@@H](c2ccc(Cl)c(Cl)c2)c2ccccc21 [Sertraline, sertraline, reference compound]
[1]; Huh-7
  IC90: 11.3 µM
[1]; Huh-7, read-out: Max Effect @CC30 (inhibition)
  Emax: 68.5%
[1]; [7]
  Emax: 62.6 ± 21.5%
[2]
  IC90: 9.65 µM
  Max Effect@CC30 (inhibition): 75.12%
Influenza A/PR/8/34
  effect on survival rate (in words): dose dependant increase in survival rate; also recorded: improves survival rate
In vitro; CC50 (uM)
  CC50: 7.98 µM
Huh7 parental cells; human
  CC50: 7.7 µM

## CSc1ccc(Oc2ccc(S(N)(=O)=O)cc2CN(C)C)cc1C [UK-416244, 3-((dimethylamino)methyl)-4-(3-methyl-4-(methylthio)phenoxy)benzenesulfonamide, reference compound]
[1]; [8]
  Emax: 97%
[1]; Huh-7
  IC50: 1.41 µM
  IC90: 6.17 ± 3.23 µM
[1]; Huh-7, 72 h
  IC50: 1.63 µM
  IC90: 9.86 µM
[1]; [5]
  IC50: 1.41 ± 0.2 µM
[1]; [6]
  Emax: 97.2 ± 1.4%
[1]; [7]
  Emax: 97.2 ± 1.4%
[1]; Huh-7, read-out: SA IC50 (uM)
  IC50: 1.41 ± 0.2 µM
[2]
  IC90: 6.55 µM
[2]; read-out: IC50 (uM) [SG]
  IC50: 1.74 µM
SRI; Table 19
  BBB/Neurotransmitter Binding (nM) SRI: <5 nM
[4]
  Pharmcokinetics: Brain levels compared with sertraline: lower than sertraline
  Pharmcokinetics: Liver levels, fold over IC50: sertraline, 511 fold over
  Pharmcokinetics: overall assessment: Optimal PK, Liver
In vitro; CC50 (uM)
  CC50: 327 µM
In vitro; CC50 (uM) [SG]
  CC50: > 50 µM
